Data: the supplement of paper PMC4862054

Legend:
Details in all cases: incubation time: 72 h
BT-474 [1] = assay: normalised response (% of control), CellTox Green; higher = less cell death (100 = DMSO, 0 = benzethonium chloride kill control)
Outline: (§1)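 Normalised signals at single concentrations make up the values. They come from breast cancer cell lines seeded (20 µl suspension) into 384-well plates with compound at 5 concentrations in 10-fold steps over a compound-specific 10,000-fold range, incubated 72 h, and read for CellTox Green fluorescence then CellTiter-Glo luminescence. Each plate was normalised to 0.1 % DMSO (100) and a positive kill control (0).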

BT-549 [2] = assay: as above
Outline: as §1

CAL-120 [3] = assay: as above
Outline: as §1

CAL-148 [4] = assay: as above
Outline: as §1

CAL-51 [5] = assay: as above
Outline: as §1

CAL-85-1 [6] = assay: as above
Outline: as §1

DU-4475 [7] = assay: as above
Outline: as §1

HCC1143 [8] = assay: as above
Outline: as §1

HCC1599 [9] = assay: as above
Outline: as §1

HDQ-P1 [10] = assay: as above
Outline: as §1

Hs578T [11] = assay: as above
Outline: as §1

MCF-10A [12] = assay: as above
Outline: as §1

MDA-MB-231 [13] = assay: as above
Outline: as §1

MDA-MB-436 [14] = assay: as above
Outline: as §1

MDA-MB-453 [15] = assay: as above
Outline: as §1

MDA-MB-468 [16] = assay: as above
Outline: as §1

BT-474 [17] = assay: normalised response (% of control), CellTiter-Glo; higher = more viable cells (100 = DMSO, 0 = benzethonium chloride kill control)
Outline: as §1

BT-549 [18] = assay: as above
Outline: as §1

CAL-120 [19] = assay: as above
Outline: as §1

CAL-148 [20] = assay: as above
Outline: as §1

CAL-51 [21] = assay: as above
Outline: as §1

CAL-85-1 [22] = assay: as above
Outline: as §1

DU-4475 [23] = assay: as above
Outline: as §1

HCC1143 [24] = assay: as above
Outline: as §1

HCC1599 [25] = assay: as above
Outline: as §1

HCC1937 [26] = assay: as above
Outline: as §1

HDQ-P1 [27] = assay: as above
Outline: as §1

Hs578T [28] = assay: as above
Outline: as §1

MCF-10A [29] = assay: as above
Outline: as §1

MDA-MB-231 [30] = assay: as above
Outline: as §1

MDA-MB-436 [31] = assay: as above
Outline: as §1

MDA-MB-453 [32] = assay: as above
Outline: as §1

MDA-MB-468 [33] = assay: as above
Outline: as §1

MFM-223 [34] = assay: as above
Outline: as §1

SK-BR-3 = assay: as above
Outline: as §1

HCC1937 [35] = assay: normalised response (% of control), CellTox Green; higher = less cell death (100 = DMSO, 0 = benzethonium chloride kill control)
Outline: as §1

MFM-223 [36] = assay: as above
Outline: as §1

SMILES	normalised response (BT-474 [1]) [%]	normalised response (BT-549 [2]) [%]	normalised response (CAL-120 [3]) [%]	normalised response (CAL-148 [4]) [%]	normalised response (CAL-51 [5]) [%]	normalised response (CAL-85-1 [6]) [%]	normalised response (DU-4475 [7]) [%]	normalised response (HCC1143 [8]) [%]	normalised response (HCC1599 [9]) [%]	normalised response (HDQ-P1 [10]) [%]	normalised response (Hs578T [11]) [%]	normalised response (MCF-10A [12]) [%]	normalised response (MDA-MB-231 [13]) [%]	normalised response (MDA-MB-436 [14]) [%]	normalised response (MDA-MB-453 [15]) [%]	normalised response (MDA-MB-468 [16]) [%]	normalised response (BT-474 [17]) [%]	normalised response (BT-549 [18]) [%]	normalised response (CAL-120 [19]) [%]	normalised response (CAL-148 [20]) [%]	normalised response (CAL-51 [21]) [%]	normalised response (CAL-85-1 [22]) [%]	normalised response (DU-4475 [23]) [%]	normalised response (HCC1143 [24]) [%]	normalised response (HCC1599 [25]) [%]	normalised response (HCC1937 [26]) [%]	normalised response (HDQ-P1 [27]) [%]	normalised response (Hs578T [28]) [%]	normalised response (MCF-10A [29]) [%]	normalised response (MDA-MB-231 [30]) [%]	normalised response (MDA-MB-436 [31]) [%]	normalised response (MDA-MB-453 [32]) [%]	normalised response (MDA-MB-468 [33]) [%]	normalised response (MFM-223 [34]) [%]	normalised response (SK-BR-3) [%]	normalised response (HCC1937 [35]) [%]	normalised response (MFM-223 [36]) [%]
CNC(=O)c1ccc(N2C(=S)N(c3ccc(C#N)c(C(F)(F)F)c3)C(=O)C2(C)C)cc1F [Enzalutamide] (1000 nM)	96	87	104	65.4	93.4	105	107	117	90.2	54.2	96.4	107	90.5	89.5	111	131	102	96.8	95.9	104	74.1	91.7	103	101	107	96.8	95.9	106	107	95.7	92.8	95.7	92.6	97.7	100	–	–
COC(=O)c1ccc2c(c1)NC(=O)/C2=C(\Nc1ccc(N(C)C(=O)CN2CCN(C)CC2)cc1)c1ccccc1 [Nintedanib] (1000 nM)	97.9	111	101	–	105	107	98.5	–	98.1	96	94.1	105	102	107	103	162	101	83.5	85.2	94.6	83.2	97.2	87.6	98.8	98.9	89.4	69.1	93.4	59.3	92	99.4	96.2	96.8	59.2	86	80.7	89.4
CNC(=O)c1ccc(N2C(=S)N(c3ccc(C#N)c(C(F)(F)F)c3)C(=O)C23CCC3)cc1F [RD162] (1000 nM)	96.8	101	101	102	107	118	104	–	96	114	85.7	120	108	111	90.8	96.5	95.3	93.7	99	103	115	96.7	103	98	126	94.6	94.9	104	102	101	98.2	98.9	97.3	102	110	83.1	–
CO[C@H]1C[C@@H]2CC[C@@H](C)[C@@](O)(O2)C(=O)C(=O)N2CCCC[C@H]2C(=O)O[C@H]([C@H](C)C[C@@H]2CC[C@@H](OP(C)(C)=O)[C@H](OC)C2)CC(=O)[C@H](C)/C=C(\C)[C@@H](O)[C@@H](OC)C(=O)[C@H](C)C[C@H](C)/C=C/C=C/C=C/1C [Ridaforolimus] (10 nM)	99.1	134	91.5	93.3	110	94.9	99.8	73	103	–	49.6	109	122	88.2	104	124	89.1	56	66.3	64.5	59.9	69.9	77	65	109	68.4	81.2	61.6	89.5	87.1	76	63.6	59.8	72.8	62.6	110	100
